Test results reported in US9802941B2, “Compounds and methods for inhibiting histone demethylases” (Gilead Sciences, Inc., priority 2014, dated 2017).
Read-outs that look alike come from different tables or passages of the source.

Legend:
Assay type in all cases: biochemical
KDM2B (FBXL10) = target: T1, KDM2B (FBXL10) (Homo sapiens, UniProt Q8NHM5); assay: Histone lysine demethylase AlphaLISA assay, KDM2B; settings: AlphaLISA, in vitro; read-out: HDME Inhibition KDM2B
T1 construct: KDM2B; BPS,; 1-650; Bac; purchased BPS Bioscience, US; host or cells: baculovirus system
T1 sequence (Q8NHM5 1-650): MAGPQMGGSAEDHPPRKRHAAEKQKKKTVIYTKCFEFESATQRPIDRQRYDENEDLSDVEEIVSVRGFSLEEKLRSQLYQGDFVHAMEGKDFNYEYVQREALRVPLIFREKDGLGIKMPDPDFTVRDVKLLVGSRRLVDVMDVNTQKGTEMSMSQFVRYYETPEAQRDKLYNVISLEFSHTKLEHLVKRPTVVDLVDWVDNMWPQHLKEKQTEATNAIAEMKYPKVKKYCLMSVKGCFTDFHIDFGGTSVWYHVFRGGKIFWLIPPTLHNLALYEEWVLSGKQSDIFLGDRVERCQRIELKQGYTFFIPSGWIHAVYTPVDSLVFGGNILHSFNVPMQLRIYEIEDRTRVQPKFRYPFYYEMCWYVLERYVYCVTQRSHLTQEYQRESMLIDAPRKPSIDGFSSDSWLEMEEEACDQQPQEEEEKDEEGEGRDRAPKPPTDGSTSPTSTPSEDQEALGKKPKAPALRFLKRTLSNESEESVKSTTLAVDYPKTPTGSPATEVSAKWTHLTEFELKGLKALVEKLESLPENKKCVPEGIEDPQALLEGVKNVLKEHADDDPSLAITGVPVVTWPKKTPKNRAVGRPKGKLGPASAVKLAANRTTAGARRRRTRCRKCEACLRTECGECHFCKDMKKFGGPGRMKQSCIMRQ
Procedure: (§1) The compounds of the application, or a pharmaceutically acceptable salt, or solvate, or prodrug thereof, are tested in an in vitro AlphaLISA assay. Enzymes are dissolved in enzyme buffer and incubated before they are added to DMSO solutions of compounds of the application, or a pharmaceutically acceptable salt, or solvate, or prodrug thereof, in enzyme buffer. The reaction mixture is then incubated for an additional period of time before substrate solution is added and then the resulting mixture again incubated. Acceptor beads and suspended Epigenetic Buffer from stock are added and the suspension is again incubated before a suspension of streptavidin donor beads in Epigenetic Buffer is added. After an additional period of incubation, the plates are read.
(§2) The ability of compounds of the application to inhibit the histone lysine demethylase activity in vitro of different enzymes was determined.
(§3) The reaction mixture was incubated for another 10 minutes before 5 μL of substrate solution was added and the resulting mixture was then incubated at room temperature. […] After incubation at room temperature in the dark, the plates were read.
(§4) Enzyme Buffer: 50 mM Hepes (pH 7.4-8.0), 0.003-0.01% Tween-20, 0.1% BSA; 5 μM (NH4)2Fe(SO4)2.

KDM5B (PLU-1) = target: T2, KDM5B (PLU-1) (Homo sapiens, UniProt Q9UGL1); assay: Histone lysine demethylase AlphaLISA assay, KDM5B
T2 construct: BRIC; 1-809; E. coli; host or cells: E. coli
T2 sequence (Q9UGL1 1-809): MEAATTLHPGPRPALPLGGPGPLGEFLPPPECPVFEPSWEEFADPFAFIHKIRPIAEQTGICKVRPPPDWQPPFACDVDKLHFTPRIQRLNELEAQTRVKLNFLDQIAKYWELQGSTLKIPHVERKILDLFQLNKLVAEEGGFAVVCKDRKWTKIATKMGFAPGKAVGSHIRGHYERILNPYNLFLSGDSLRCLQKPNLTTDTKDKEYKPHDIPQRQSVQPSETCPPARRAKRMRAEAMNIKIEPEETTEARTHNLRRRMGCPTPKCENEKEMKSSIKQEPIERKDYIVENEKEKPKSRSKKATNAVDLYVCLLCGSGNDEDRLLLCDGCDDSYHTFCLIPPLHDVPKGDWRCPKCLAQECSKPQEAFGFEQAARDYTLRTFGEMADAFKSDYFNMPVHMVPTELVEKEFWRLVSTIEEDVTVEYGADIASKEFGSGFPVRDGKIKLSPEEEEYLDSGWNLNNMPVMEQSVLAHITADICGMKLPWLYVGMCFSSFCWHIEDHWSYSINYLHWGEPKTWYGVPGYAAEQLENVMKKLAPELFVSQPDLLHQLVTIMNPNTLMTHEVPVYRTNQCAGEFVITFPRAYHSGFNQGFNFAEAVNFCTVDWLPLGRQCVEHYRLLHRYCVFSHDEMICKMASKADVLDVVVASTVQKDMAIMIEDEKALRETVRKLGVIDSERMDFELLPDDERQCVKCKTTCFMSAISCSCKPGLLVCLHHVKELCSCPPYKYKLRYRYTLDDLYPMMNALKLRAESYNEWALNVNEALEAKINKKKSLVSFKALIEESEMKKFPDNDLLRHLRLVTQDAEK
Procedure: as §1, §2, §3, §4

KDM4C (JMJD2C) = target: T3, KDM4C (JMJD2C) (Homo sapiens, UniProt Q9H3R0); assay: Histone lysine demethylase AlphaLISA assay, KDM4C
T3 construct: KDM4C; BRIC, Denmark; 1-349; E. coli; host or cells: E. coli
T3 sequence (Q9H3R0 1-349): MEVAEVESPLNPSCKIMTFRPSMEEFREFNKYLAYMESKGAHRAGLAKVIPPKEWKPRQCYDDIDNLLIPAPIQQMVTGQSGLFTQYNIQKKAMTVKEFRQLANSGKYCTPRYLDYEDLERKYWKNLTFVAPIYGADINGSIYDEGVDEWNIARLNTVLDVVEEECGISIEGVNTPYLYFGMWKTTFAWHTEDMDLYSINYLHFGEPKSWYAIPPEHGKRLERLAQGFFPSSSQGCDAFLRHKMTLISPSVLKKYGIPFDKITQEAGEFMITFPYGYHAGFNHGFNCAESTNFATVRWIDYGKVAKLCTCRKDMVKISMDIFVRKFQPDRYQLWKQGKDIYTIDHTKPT
Procedure: as §1, §2, §3, §4

PHF8 (KDM7) = target: T4, PHF8 (KDM7) (Homo sapiens, UniProt Q9UPP1); assay: Histone lysine demethylase AlphaLISA assay, PHF8
T4 construct: KDM7 (PHF8); BRIC; 1-1322; Bac
Procedure: as §1, §2, §3, §4

[1] = AlphaLISA assay, read-out: HDME Inhibition KDM4C (IC50)
[2] = AlphaLISA, in vitro, read-out: HDME Inhibition KDM4C
[3] = AlphaLISA, in vitro, read-out: HDME Inhibition PHF8
[4] = AlphaLISA assay, read-out: HDME Inhibition KDM5B (IC50)
[5] = AlphaLISA, in vitro, read-out: HDME Inhibition KDM5B

T4 sequence (Q9UPP1 37-440 limits assumed): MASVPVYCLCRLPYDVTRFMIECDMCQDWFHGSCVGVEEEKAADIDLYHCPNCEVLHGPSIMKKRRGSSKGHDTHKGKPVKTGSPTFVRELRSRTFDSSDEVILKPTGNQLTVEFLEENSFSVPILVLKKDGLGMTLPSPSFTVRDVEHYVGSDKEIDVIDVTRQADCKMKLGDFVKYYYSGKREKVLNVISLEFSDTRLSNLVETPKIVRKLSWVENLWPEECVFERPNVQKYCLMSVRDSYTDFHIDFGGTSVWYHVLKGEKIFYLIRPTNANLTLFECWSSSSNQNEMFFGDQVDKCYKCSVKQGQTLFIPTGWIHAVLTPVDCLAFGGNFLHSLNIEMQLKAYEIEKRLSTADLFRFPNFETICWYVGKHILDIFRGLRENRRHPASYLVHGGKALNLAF

Structure (SMILES)	IC50 (KDM2B (FBXL10)) [nM]	IC50 (KDM5B (PLU-1)) [nM]	IC50 (KDM4C (JMJD2C); [1]) [nM]	IC50 (KDM4C (JMJD2C); [2]) [nM]	IC50 (PHF8 (KDM7); [3]) [nM]	IC50 (KDM5B (PLU-1); [4]) [nM]	IC50 (KDM5B (PLU-1); [5]) [nM]	IC50 (PHF8 (KDM7); AlphaLISA assay, read-out: HDME Inhibition PHF8 (IC50)) [nM]
COc1ccc(OCc2ccccc2)c(CNCc2cc(C(=O)O)cc(CO)n2)n1 [Compound 93, 2-[({[3-(Benzyloxy)-6-methoxypyridin-2-yl]methyl}amino)methyl]-6-(hydroxymethyl)pyridine-4-carboxylic acid]	32		> 10000	> 10000	1480	> 10000	> 10000	
CCN(CCN(C)C)C(=O)CNCc1cc(C(=O)O)cc(C)n1 [Compound 98, 2-{[({[2-(dimethylamino)ethyl](ethyl)carbamoyl}methyl)amino]methyl}-6-methylpyridine-4-carboxylic acid]	530			1670	> 10000		8	> 10000
CCc1cnc(CNCc2cc(C(=O)O)cc(C)n2)n1Cc1cccs1 [Compound 115, 2-[({[5-ethyl-1-(thiophen-2-ylmethyl)-1H-imidazol-2-yl]methyl}amino)methyl]-6-methylpyridine-4-carboxylic acid]	53		> 10000	> 10000	506	> 10000	> 10000	
Cc1cc(C(=O)O)cc(CNCc2nnc(C3CCC3)n2Cc2ccc(F)cc2)n1 [Compound 45, 2-{[({5-cyclobutyl-4-[(4-fluorophenyl)methyl]-4H-1,2,4-triazol-3-yl}methyl)amino]methyl}-6-methylpyridine-4-carboxylic acid]	501		> 10000	> 10000	491	> 10000	> 10000	
C=CCn1ccnc1CNCc1cc(C(=O)O)cc(C)n1 [Compound 75, 2-methyl-6-[({[1-(prop-2-en-1-yl)-1H-imidazol-2-yl]methyl}amino)methyl]pyridine-4-carboxylic acid]	587	431	> 10000	> 10000	1270			

Next, values leading:

IC50 (KDM2B (FBXL10)) [nM]	IC50 (KDM5B (PLU-1)) [nM]	IC50 (KDM4C (JMJD2C); [1]) [nM]	IC50 (KDM4C (JMJD2C); [2]) [nM]	IC50 (PHF8 (KDM7); [3]) [nM]	IC50 (KDM5B (PLU-1); [4]) [nM]	IC50 (KDM5B (PLU-1); [5]) [nM]	IC50 (PHF8 (KDM7); AlphaLISA assay, read-out: HDME Inhibition PHF8 (IC50)) [nM]	Structure (SMILES)
485	559	> 10000	> 10000	1750				Cc1nnc(CNCc2cc(C(=O)O)cc(CO)n2)n1CCCC(C)C [Compound 70, 2-(hydroxymethyl)-6-[({[5-methyl-4-(4-methylpentyl)-4H-1,2,4-triazol-3-yl]methyl}amino)methyl]pyridine-4-carboxylic acid]
27		> 10000	> 10000	662	> 10000	> 10000		CCc1nnc(CNCc2cc(C(=O)O)cc(CO)n2)n1CCCc1ccccc1 [Compound 69, 2-[({[5-ethyl-4-(3-phenylpropyl)-4H-1,2,4-triazol-3-yl]methyl}amino)methyl]-6-(hydroxymethyl)pyridine-4-carboxylic acid]
140	21		823	334				O=C(O)c1cc(CO)nc(CNCc2nccn2Cc2ccc(F)cc2)c1 [Compound 81, 2-{[({1-[(4-fluorophenyl)methyl]-1H-imidazol-2-yl}methyl)amino]methyl}-6-(hydroxymethyl)pyridine-4-carboxylic acid]
47		> 10000	> 10000	2030	> 10000	> 10000		CCc1nnc(CNCc2cc(C(=O)O)cc(CO)n2)n1CCCC(C)C [Compound 94, 2-[({[5-ethyl-4-(4-methylpentyl)-4H-1,2,4-triazol-3-yl]methyl}amino)methyl]-6-(hydroxymethyl)pyridine-4-carboxylic acid]
70	635	> 10000	> 10000	1150				CCc1cnc(CNCc2cc(C(=O)O)cc(CO)n2)n1Cc1ccc(F)cc1 [Compound 100, 2-{[({5-ethyl-1-[(4-fluorophenyl)methyl]-1H-imidazol-2-yl}methyl)amino]methyl}-6-(hydroxymethyl)pyridine-4-carboxylic acid]
